Biological target: EGFR (UniProt P00533)
Sequence (P00533 whole entry, looked up): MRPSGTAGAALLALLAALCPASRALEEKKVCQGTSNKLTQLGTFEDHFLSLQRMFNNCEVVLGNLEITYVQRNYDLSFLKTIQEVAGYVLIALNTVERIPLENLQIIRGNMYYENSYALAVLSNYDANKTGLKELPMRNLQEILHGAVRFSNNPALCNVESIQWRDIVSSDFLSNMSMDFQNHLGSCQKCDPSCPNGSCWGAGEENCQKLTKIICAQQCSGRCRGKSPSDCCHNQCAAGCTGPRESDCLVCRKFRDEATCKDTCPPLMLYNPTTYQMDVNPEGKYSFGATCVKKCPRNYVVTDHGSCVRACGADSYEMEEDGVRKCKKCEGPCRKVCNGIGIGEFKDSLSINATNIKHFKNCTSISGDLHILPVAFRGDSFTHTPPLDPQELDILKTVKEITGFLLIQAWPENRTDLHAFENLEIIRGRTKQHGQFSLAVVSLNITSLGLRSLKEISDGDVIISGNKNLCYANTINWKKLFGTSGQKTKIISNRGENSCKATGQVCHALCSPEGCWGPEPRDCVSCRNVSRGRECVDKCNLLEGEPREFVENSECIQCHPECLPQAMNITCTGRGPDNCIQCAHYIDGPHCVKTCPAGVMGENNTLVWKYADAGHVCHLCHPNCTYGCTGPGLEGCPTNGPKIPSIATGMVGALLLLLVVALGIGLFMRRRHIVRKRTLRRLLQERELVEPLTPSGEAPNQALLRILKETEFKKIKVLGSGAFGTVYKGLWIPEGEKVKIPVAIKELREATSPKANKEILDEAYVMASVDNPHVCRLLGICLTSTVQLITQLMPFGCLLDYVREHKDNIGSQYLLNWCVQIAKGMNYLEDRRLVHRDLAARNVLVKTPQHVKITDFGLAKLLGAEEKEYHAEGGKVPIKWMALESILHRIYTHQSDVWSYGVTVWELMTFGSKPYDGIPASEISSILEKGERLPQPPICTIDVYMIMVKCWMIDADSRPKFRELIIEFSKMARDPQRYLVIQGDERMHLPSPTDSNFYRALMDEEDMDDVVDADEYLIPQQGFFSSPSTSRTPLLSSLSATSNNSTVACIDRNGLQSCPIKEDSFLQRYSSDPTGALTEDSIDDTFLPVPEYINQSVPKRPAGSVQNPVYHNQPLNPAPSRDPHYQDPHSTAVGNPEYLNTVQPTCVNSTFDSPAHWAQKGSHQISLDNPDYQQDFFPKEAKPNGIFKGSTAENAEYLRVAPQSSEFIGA

Row | Structure (SMILES) | IC50 [µM]
1 | O=C(Nc1ccc(Br)cc1)Nc1ncnc2nn3ccccc3c12 | > 10
2 | O=C(Nc1ccc(F)cc1)Nc1ncnc2nn3ccccc3c12 | > 10
3 | Nc1ncnc2nn3ccccc3c12 | > 10
4 | O=C(Nc1cccc([N+](=O)[O-])c1)Nc1ncnc2nn3ccccc3c12 | > 10
5 | O=C(Nc1cccc(C(F)(F)F)c1)Nc1ncnc2nn3ccccc3c12 | > 10
6 | N#Cc1cccc(NC(=O)Nc2ncnc3nn4ccccc4c23)c1 | > 10

More lines, now with the values ahead:

Row | IC50 [µM] | Structure (SMILES)
7 | 1 to 10 | c1ccc2c(CNNc3ncnc4nn5ccccc5c34)c[nH]c2c1
8 | > 10 | O=C(Nc1ccc(C(F)(F)F)cc1)Nc1ncnc2nn3ccccc3c12
9 | 1 to 10 | c1ccc(Cc2nc3ccc(Nc4ncnc5nn6ccccc6c45)cc3[nH]2)cc1
10 | < 0.1 | Clc1cc(Nc2ncnc3nn4ccccc4c23)ccc1OCc1ccccc1

Reference: the Kinase Knowledgebase extract (Sharma et al. 2016)
